Measured values taken from patent publication US8084262B2, “Biomarker for farnesyl pathway” (Hoffmann-La Roche Inc., priority 2006, dated 2011).
Where two headings read alike, the source gives them in different places.

Assays:
N-acetyl-felinine [1] = assay: Determination of N-acetyl-felinine in rat urine by LC-MS; assay type: in vivo, Sprague Dawley rats; conditions: for LC-MS signal for expected mass of N-acetyl felinine (m/z 248 in neg. mode): rat urine, 96 h after dosing
Procedure: (§1) Urine samples were collected in metabolism cages at 0 to 4° C. (automatically refrigerated by a Tecniplast sampling/cooling unit) at the intervals given in the sampling schedule below into sample tubes containing 1 ml of an aqueous Cs-azide (1%) solution. Before aliquoting, urine volumes were determined.
(§2) Immediately after reaching the end of the sampling period, the volume was determined and the samples were centrifuged at 3000 u/min [500 g] for 10 min.
LC-MS analysis of urine was performed using an Agilent 1100 HPLC system coupled to a Bruker Esquire 3000+ mass spectrometer equipped with an electrospray interface. Urine samples were diluted 4-fold with distilled water and 2 μl injections were made from a well plate maintained at 4° C. into a 150 mm×3.9 mm Waters Atlantis dC18 3 μm HPLC column maintained in an oven at 30° C. The column was eluted at a flow rate of 1 ml/min; mobile phase A consisted of 20 mM ammonium acetate, and mobile phase B of acetonitrile. […] The mass spectrometer was operated in negative mode with a dry gas flow of 81/min, nebulizer pressure of 27 psi and dry temperature of 330° C. The instrument was set to acquire over the mass range m/z 50-800. N-acetyl-felinine was found under this conditions at a retention time of 9.6 min with the expected m/z 248 (see FIG. 8) in samples of rats dosed with Zoledronate.

N-acetyl-felinine [2] = assay: Determination of N-acetyl-felinine in rat urine by NMR; assay type: in vivo, Sprague Dawley rats; conditions: for N-acetyl-felinine levels in urine: in a given time interval after stimulation
Procedure: as §1, §2
N-acetyl-felinine was identified in urine samples on basis of 1D and 2D NMR spectra. Spectra were acquired at 600.13 MHz on a Bruker AV 600 spectrometer and at 500.13 MHz on Bruker DRX-500 spectrometer. Urine samples were prepared and measured and the data evaluated as described elsewhere (Keun, H. C.; Ebbels, T. M. D.; Antti, H.; Bollard, M. E.; Beckonert, O.; Schlotterbeck, G.; Senn, H,; Niederhauser, U.; Holmes, E.; Lindon, J. C.; Nicholson, J. K. Chem. Res. Toxicol. 2002, 15, 1380-1386).
Aliquots of 400 microliter urine are transferred into well plates. For adjustment of urinary pH 200 microliter of buffer [ca. 0.2M Na2HPO4/NaH2PO4, ca. 1 mM TSP (3-trimethylsilyl-D4-propionic acid), ca. 3 mM sodium azide] is added to each well. Prepared well plates are centrifuged at ca. 3,000 rpm at 4° C. for 5-10 min to remove insoluble material.
^1H NMR spectra for Metabonomic analysis (e.g. at 500 Mhz, 64 k data points, 12019.2 Hz spectral width) were measured at 300K. The water resonance were suppressed by use of standard pulse-sequences (e.g noesyprld, irradiation for 2 s relaxation delay and during 100 ms mixing time). For each sample as many transients were added as is needed to provide spectra high enough in signal to noise. Fourier transformation was done by use of a matched window function (e.g. lb=1) followed by (automatic or manual) phasing and base-line correction. Referencing was done with respect to TSP added (defined as 0.0 ppm). Acquisition and processing of spectra was performed with Bruker XWinNMR 3.5 software.
Each spectrum recorded was reduced in size for simplified statistical analysis (e.g. For NMR spectra recorded according to the standard protocol 245 variables will be calculated by equidistant integration between 0.2-10.0 ppm). Regions containing misleading information (e.g. solvents, urea cover a region for 4.5 up to 6.0 ppm) were excluded or merged (e.g. the region from 2.66 to 2.74 ppm serves as a value indicative for citrate) prior to analysis. To take account variations in urine concentration, all data-reduced spectra were normalised to a constant integrated intensity of 100 units.
Thereby widespread PCA (principal component analysis) is used for identifying significant patterns of signals and assigning these patterns to samples and groups of samples. PLS (projection to latent structures, partial least squares) is also used for finding significant patterns of signals, whereby in contrast to PCA the information of dose-groups is used for boosting the identification of significant changes. The assignment is performed with the help of an internal data base of metabolites, with the help of pathway mapping procedures (KEGG database) and with the help of a spectroscopic structure elucidation for unknown metabolites when feasible.

kidney and liver [3] = assay: Histopathology of treated animals (kidney and liver toxicity)
kidney and liver [4] = conditions: rat, in vivo

Row | Structure (SMILES) | N-acetyl-felinine in urine by LC-MS (N-acetyl-felinine [1]; negative mode, urine samples of dosed rats) | LC-MS signal for expected mass of N-acetyl felinine (m/z 248 in neg. mode) (N-acetyl-felinine [1]; 6 mg/kg, FIG. 8) | N-acetyl-felinine in urine NMR spectra (N-acetyl-felinine [2]; 1D NMR, signal at 1.32 ppm, FIG. 5) | NMR signal at 1.32 ppm in urine (N-acetyl-felinine [2]; 96 h after dosing, FIG. 5) | N-acetyl-felinine levels in urine (N-acetyl-felinine [2]) | kidney and liver toxicity in histopathology (kidney and liver [3]) | LC-MS signal for expected mass of N-acetyl felinine (m/z 248 in neg. mode) (N-acetyl-felinine [1]; 3 mg/kg, FIG. 9) | kidney and liver toxicity in histopathology (kidney and liver [4]) | Time course of bin 1.32 ppm (Methyl signals of N-Acetyl felinine) relative to creatinine (N-acetyl-felinine [2]; rat urine NMR, FIG. 3)
1 | O=P(O)(O)C(O)(Cn1ccnc1)P(=O)(O)O [Zoledronate] | found | Strong signal found | found | New signal at 1.32 ppm visible | high levels | kidney and liver toxicity was observed | – | – | –
2 | CCCCCN(C)CCC(O)(P(=O)(O)O)P(=O)(O)O [Ibandronate] | – | – | – | – | undetectable | – | No signal found | not so | no increase
